According to publication PMC5906549, “Cathelicidin-Derived Antimicrobial Peptides Inhibit Zika Virus Through Direct Inactivation and Interferon Pathway” (Frontiers in Immunology, 2018):
Peptide text beside a SMILES is read from it.

Legend:
in vitro = details: African green monkey
Method: (§1) Cell viability was examined by the CellTiter 96 ®Aqueous One Solution Cell Proliferation Assay (Promega, Madison, WI, USA). Vero cells and astrocytes were seeded into 96-well tissue culture plates (Fisher Scientific) and treated with fresh growth medium containing different concentrations of each peptide for 2 or 4 days at 37°C. At the experimental end point, MTS [3-(4,5-dimethylthiazol-2-yl)-5-(3-carboxymethoxyphenyl)-2-(4-sulfophenyl)-2H-tetrazolium] was added to the cultures and incubated for 1 h. The absorbance at 490 nm was recorded through BioTek Gen5 data analysis software (Winooski), VT, optical density (OD) values were used as a representation of cell viability.
(§2) (A) Vero cells were treated with doses of peptides ranging from 1 to 50 µM. After 24 h, the cultures were washed and treated with same doses of peptides in fresh medium for another 24 h. Cell viability was determined by a colorimetric MTS assay. Results shown are the averages ±SD of experiments performed in triplicate. Data were analyzed by non-linear regression. The EC50 was assessed for each of the antimicrobial peptides. (B) Vero cells were treated with doses of peptides ranging from 0.4 to 10 µM for 2 h then infected with ZIKV at the MOI of 0.5. After 24 h, the cultures were washed and treated with same doses of peptides in fresh medium for another 24 h. ZIKA RNA was detected in total cellular RNA through real-time RT-PCR. Data were normalized to GAPDH and presented as fold change (in log scale) compared with ZIKV group. ** p < 0.01 and *** p < 0.001, as compared with the ZIKV group without the peptide treatment (ANOVA, N = 3).
(§3) A, B) Vero cells were treated with 10 µM AMPs for 2 days or 4 days as outlined in the figure. For 4-day treatment, Vero cells were repeatedly treated with 10 µM AMPs at 2-day post-treatment. At the experimental end point, cell viability was determined by a colorimetric MTS assay CellTiter 96® AQueous One Solution Assay (Promega, Madison, WI) based on the manufacture’s instruction. Results were normalized as percentage of cell viability in control astrocytes. CTL, control. * denotes p < 0.05, ** denotes p < 0.01, *** denotes p < 0.001 as compared to the control group without peptide treatment (ANOVA, N = 3).

Vero cells = assay: in vitro
Method: as §1, §2, §3

ZIKV strain MR766 = assay: Viral attachment assay at 4°C in human fetal astrocytes; format: cell-based, Zika virus; details: astrocytes pre-incubated at 4°C half an hour, peptide along with ZIKV MOI 0.5 for 2 h at 4°C; normalized to 18-s rRNA; N = 3
Method: Viral attachment assay was adapted from a previous publication ([36]) with modifications. Briefly, primary human fetal astrocytes were pre-incubated at 4°C for half an hour and then treated with AMPs along with ZIKV infection at the MOI of 0.5. After infection at 4°C for 2 h, cultures were washed with fresh medium for three times and RNA was isolated from whole cells. ZIKV RNA was determined through real-time RT-PCR. Data were normalized to 18-s rRNA and presented as fold change compared with the ZIKV group. One experimental group was subjected to trypsin digestion to remove any attached virions. This group served as a positive control for the viral attachment experiment.
(A) Primary human fetal astrocytes were pre-incubated at 4°C for half an hour and then treated with antimicrobial peptides along with ZIKV infection at the MOI of 0.5 for 2 h. Cultures were then washed with fresh medium for three times. […] Data were normalized to 18-s rRNA and presented as fold change compared with the ZIKV group. The trypsin digestion group readily removes any attached virions and thus serves as positive control. […] After infection for 2 h, cultures were washed with fresh medium for three times and RNA was isolated from whole cells. ZIKV RNA was determined through real-time RT-PCR.

IFN-α2 = IFN-α2 expression in human fetal astrocytes (real-time RT-PCR); format: cell-based; details: for IFN-α2 expression in ZIKV-infected fetal astrocytes: ZIKV MOI 0.5, AMPs 0.4 to 10 µM, 48 h; for IFN-α2 expression in ZIKV-infected fetal astrocytes / IFN-α2 expression in uninfected fetal astrocytes: normalized to 18-s rRNA, N = 3; for IFN-α2 expression in uninfected fetal astrocytes: AMP treatment 48 h
Method: Total mRNA was isolated with TRIzol Reagent (Thermo Fisher Scientific) and RNeasy Mini Kit (QIAGEN Inc., Valencia, CA, USA) following the manufacturer’s recommendations. Two real-time RT-PCR methods were used for the current studies. First, SYBR Green-based RT-PCR assay was used to determine intracellular ZIKV RNA in Vero cells. For this assay, reverse transcription was performed using Verso cDNA synthesis Kit (Thermo Fisher Scientific) and 1 µg of total RNA in a 15-µL final volume. The RT-PCR analyses were performed using 7.5-µL SYBR Green PCR Master Mix (Thermo Fisher Scientific) with 0.5-µL cDNA, 1.5-µL H2O, 5.5-µL oligonucleotide primer pairs at 10 µM. […] GG-3. PCR program: 1, 50°C for 2 min; 2, 95°C for 2 min; 3, 95°C for 15 s; 4, specific annealing temperature for 15 s; 5, 72°C for 1 min. Steps 2–4 were repeated 40 times. All samples were amplified in triplicate for analysis. Relative ZIKV RNA levels were determined and standardized with a GAPDH internal control using comparative ΔΔCT method ([35]). Second, TaqMan-based RT-PCR assay was used to determine intracellular ZIKV RNA and other gene expressions in Figures 3–6 and extracellular ZIKV RNA in Figure 3. The TaqMan assay was performed in a StepOne^TM Real-Time PCR system (Thermo Fisher Scientific). Primers used for TaqMan real-time RT-PCR were all from the Thermo Fisher Scientific, which included ZIKV (forward sequence: 5-[…]-3, reverse sequence: 5- […]-3, and probe sequence: 5′-[…]-3), IFN-α2 (Hs00265051_s1), IFN-β1 (Hs01077958_s1), eukaryotic 18-s rRNA (Hs99999901_s1), β-actin (Hs99999903_m1), and GAPDH (Catalog number: 4310884E). Relative ZIKV mRNA levels were determined and standardized with a GAPDH or 18-s rRNA endogenous control using comparative ΔΔCT method ([35]). […] For ZIKV in supernatants, RNA was extracted from the supernatants through TRIzol™ LS Reagent (Thermo Fisher Scientific, 10296028) following the manufacturer’s manual. […] Quantitative genomic RNA from ZIKV (NR-1838DQ, ATCC) was used as a standard to calculate viral copies.

[1] = uninfected human fetal astrocytes

EC50 at 48 h (in vitro) [µM] | Structure (SMILES) | Cytotoxicity to Vero cells at 10 µM (Vero cells) | ZIKV RNA levels in astrocytes at 4°C (viral attachment) (ZIKV strain MR766) | IFN-α2 expression in ZIKV-infected fetal astrocytes (IFN-α2) | Increase of IFN-α2 expression in uninfected fetal astrocytes (IFN-α2; uninfected human fetal astrocytes, difference not statistically significant) [folds] | IFN-α2 expression in uninfected fetal astrocytes (IFN-α2; [1])
> 50 | CC[C@H](C)[C@H](NC(=O)[C@H](CCCCN)NC(=O)[C@H](CCCCN)NC(=O)[C@H](Cc1ccccc1)NC(=O)[C@H](CC(C)C)NC(=O)[C@H](CCCCN)NC(=O)[C@H](CCCCN)NC(=O)[C@H](Cc1ccccc1)NC(=O)[C@H](CCCCN)NC(=O)[C@H](CCCCN)NC(=O)[C@H](CCCNC(=N)N)NC(=O)[C@H](Cc1ccccc1)NC(=O)[C@H](CCCNC(=N)N)NC(=O)[C@H](CCCCN)NC(=O)[C@H](Cc1ccccc1)NC(=O)[C@H](CCCNC(=N)N)NC(=O)CN)C(=O)N[C@@H](CO)C(=O)O [BMAP-18] (H-GRFKRFRKKFKKLFKKIS-OH; N-terminus and C-terminus assumed) | minimal cytotoxicity | did not alter the ZIKV RNA levels | significantly increased IFN-α2 expression levels in a dose-dependent manner | 7 | 
> 50 | CC[C@H](C)[C@H](NC(=O)[C@H](CCCNC(=N)N)NC(=O)[C@H](CCC(N)=O)NC(=O)[C@@H](NC(=O)[C@@H](NC(=O)[C@@H](N)CCCNC(=N)N)[C@@H](C)CC)C(C)C)C(=O)N[C@@H](CCCCN)C(=O)N[C@@H](CC(=O)O)C(=O)N[C@@H](Cc1ccccc1)C(=O)N[C@@H](CC(C)C)C(=O)O [RI-10, reference compound] (H-RIVQRIKDFL-OH; N-terminus and C-terminus assumed) | minimal cytotoxicity | did not alter the ZIKV RNA levels | but not RI-10, significantly increased IFN-α2 expression levels |  | did not affect the expression levels of IFN-α2
> 50 | CC[C@H](C)[C@H](NC(=O)[C@H](CCCNC(=N)N)NC(=O)[C@H](CCC(N)=O)NC(=O)[C@@H](NC(=O)[C@@H](NC(=O)[C@H](CCCNC(=N)N)NC(=O)[C@H](CCCCN)NC(=O)[C@H](Cc1ccccc1)NC(=O)CN)[C@@H](C)CC)C(C)C)C(=O)N[C@@H](CCCCN)C(=O)N[C@@H](CC(=O)O)C(=O)N[C@@H](Cc1ccccc1)C(=O)N[C@@H](CC(C)C)C(=O)N[C@@H](CCCNC(=N)N)C(=O)N[C@@H](CC(N)=O)C(=O)N[C@@H](CC(C)C)C(=O)N[C@H](C(N)=O)C(C)C [GF-17] (H-GFKRIVQRIKDFLRNLV-NH2; N-terminus and C-terminus assumed) | minimal cytotoxicity | did not alter the ZIKV RNA levels | significantly increased IFN-α2 expression levels in a dose-dependent manner |  | significantly increased IFN-α2 expression
